Test [1] deals with FAD-linked sulfhydryl oxidase ALR (Homo sapiens, UniProt P55789). The test is described as follows: inhibitors of human ALR sulfhydryl oxidase, dose response, biochemical, H2O2 detection, luminescence, cherry-pick (AID 493248).
The target of the next test is T1, Protein RecA (Mycobacterium tuberculosis, UniProt P9WHJ3).
T1 sequence (P9WHJ3 whole entry): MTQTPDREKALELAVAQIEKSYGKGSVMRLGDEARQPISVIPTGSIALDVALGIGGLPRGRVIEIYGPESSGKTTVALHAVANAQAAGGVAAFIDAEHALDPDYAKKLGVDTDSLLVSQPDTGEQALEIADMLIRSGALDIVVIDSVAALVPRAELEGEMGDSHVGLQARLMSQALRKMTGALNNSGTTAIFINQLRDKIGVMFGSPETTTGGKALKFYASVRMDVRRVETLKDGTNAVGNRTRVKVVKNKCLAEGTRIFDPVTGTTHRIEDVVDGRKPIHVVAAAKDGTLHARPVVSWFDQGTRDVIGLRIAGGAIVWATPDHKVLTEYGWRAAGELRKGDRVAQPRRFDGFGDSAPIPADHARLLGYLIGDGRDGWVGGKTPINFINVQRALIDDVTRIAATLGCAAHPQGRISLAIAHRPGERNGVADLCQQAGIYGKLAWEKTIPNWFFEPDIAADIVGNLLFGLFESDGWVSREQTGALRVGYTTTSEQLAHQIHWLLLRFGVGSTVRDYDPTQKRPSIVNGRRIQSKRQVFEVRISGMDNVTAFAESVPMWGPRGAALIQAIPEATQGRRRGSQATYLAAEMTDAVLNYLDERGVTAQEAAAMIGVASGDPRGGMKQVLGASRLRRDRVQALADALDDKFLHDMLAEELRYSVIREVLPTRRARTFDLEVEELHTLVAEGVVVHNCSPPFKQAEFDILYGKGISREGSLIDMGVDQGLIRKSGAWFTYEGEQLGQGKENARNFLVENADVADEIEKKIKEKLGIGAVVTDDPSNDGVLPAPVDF
As to the kind of experiment: Fluorescence Cell-Free Homogeneous Dose Retest to Identify Inhibitors of RecA-Intein Splicing Activity. [Related pubchem assays (depositor defined):AID2097, AID2223, AID489010, AID492950]. Format: functional.

Test [2] has as its target T2, Replicative DNA helicase DnaB (Mycobacterium tuberculosis, UniProt P9WMR3).
T2 sequence (P9WMR3 whole entry): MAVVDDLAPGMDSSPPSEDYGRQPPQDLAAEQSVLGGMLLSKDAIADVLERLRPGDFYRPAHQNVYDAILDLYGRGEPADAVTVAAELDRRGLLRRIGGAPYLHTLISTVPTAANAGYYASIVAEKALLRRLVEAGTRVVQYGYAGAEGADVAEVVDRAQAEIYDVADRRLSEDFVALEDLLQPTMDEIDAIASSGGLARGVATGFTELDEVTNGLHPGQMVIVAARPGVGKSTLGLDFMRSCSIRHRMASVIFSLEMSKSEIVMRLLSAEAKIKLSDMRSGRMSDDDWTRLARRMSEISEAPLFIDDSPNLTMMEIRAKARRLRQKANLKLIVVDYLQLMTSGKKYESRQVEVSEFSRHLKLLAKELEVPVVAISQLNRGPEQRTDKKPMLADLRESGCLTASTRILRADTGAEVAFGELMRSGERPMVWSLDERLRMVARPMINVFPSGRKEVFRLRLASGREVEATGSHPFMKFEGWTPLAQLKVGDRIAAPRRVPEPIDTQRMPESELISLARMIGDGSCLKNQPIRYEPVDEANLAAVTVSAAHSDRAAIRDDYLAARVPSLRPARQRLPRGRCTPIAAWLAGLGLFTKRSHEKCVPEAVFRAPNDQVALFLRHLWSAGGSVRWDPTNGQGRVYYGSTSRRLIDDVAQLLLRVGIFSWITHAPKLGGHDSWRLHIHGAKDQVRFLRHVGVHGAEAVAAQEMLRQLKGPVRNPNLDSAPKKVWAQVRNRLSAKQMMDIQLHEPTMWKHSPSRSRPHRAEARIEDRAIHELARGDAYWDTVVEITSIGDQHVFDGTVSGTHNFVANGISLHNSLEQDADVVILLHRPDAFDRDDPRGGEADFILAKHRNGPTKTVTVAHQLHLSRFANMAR
As to the kind of experiment: DnaB intein splicing inhibitors, dose response, biochemical, cell-free fluorescence (AID 449749). Format: functional.

Test [3] can be described thus: microbe, parasite or virus in culture. Format: functional. The note with it: Mycobacterium tuberculosis.
Test [4] is described as follows: Luminescence Cell-Based Dose Confirmation HTS to Identify Inhibitors of Platelet Dense Granule Release. [Related pubchem assays: 1663 (Primary HTS), 1678 (Summary of Project)]. Format: functional.
The target in test [5] is Luciferin 4-monooxygenase (Photinus pyralis, UniProt P08659). The test is described as follows: firefly luciferase enzyme inhibitors, dose response, biochemical, luminescence (AID 1891).
The nature of test [6]: growth suppression of PTEN-null colon cells, dose response, cell-based, HCT116 PTEN knockout (AID 1047).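 Note: HCT116 colon tumor cells with PTEN knocked out; cells exposed to compound for 60 hours before readout; potency for loss of cell viability measured by luminescence.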 Format: functional.
The nature of test [7]: growth suppression of beta-catenin-knockout colon cells, dose response, cell-based, HCT116, human colon tumor (AID 1045).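 Note: HCT116 colon tumor cells with beta catenin knocked out; cells exposed to compound for 60 hours.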 Format: functional.
The target in a further test is T3, Leucine aminopeptidase (Plasmodium falciparum 3D7, UniProt Q8IL11).
T3 sequence (Q8IL11 whole entry): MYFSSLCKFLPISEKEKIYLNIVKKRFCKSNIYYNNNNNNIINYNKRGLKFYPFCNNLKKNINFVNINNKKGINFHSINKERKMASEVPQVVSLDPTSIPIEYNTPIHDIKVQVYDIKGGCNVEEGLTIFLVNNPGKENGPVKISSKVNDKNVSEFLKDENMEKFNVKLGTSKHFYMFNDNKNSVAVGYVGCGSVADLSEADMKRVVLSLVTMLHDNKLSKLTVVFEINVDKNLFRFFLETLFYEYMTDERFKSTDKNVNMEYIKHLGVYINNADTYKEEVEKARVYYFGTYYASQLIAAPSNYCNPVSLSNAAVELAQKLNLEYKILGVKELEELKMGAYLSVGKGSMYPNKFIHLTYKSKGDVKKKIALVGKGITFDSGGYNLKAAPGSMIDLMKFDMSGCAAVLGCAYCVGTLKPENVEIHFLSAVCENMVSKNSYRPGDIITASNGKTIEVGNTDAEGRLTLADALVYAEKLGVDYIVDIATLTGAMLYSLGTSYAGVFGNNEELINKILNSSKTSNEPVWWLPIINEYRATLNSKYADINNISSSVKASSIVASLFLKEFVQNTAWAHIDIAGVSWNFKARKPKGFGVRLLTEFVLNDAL
The test is described as follows: P. falciparum M17LAP inhibitors, primary screen, biochemical, fluorogenic H-Leu-NHMec substrate, 1536-well (AID 1619). Format: functional.

The nature of test [8]: inhibitors of intracellular T. cruzi replication, confirmation, NIH3T3 host cells, beta-gal luminescence (AID 2044).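 Note: intracellular parasites grown in NIH/3T3 mouse fibroblasts as host cells; luminescent beta-galactosidase reporter signal from transgenic T. cruzi replicating inside host cells; inhibitors lower the luminescence signal.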 Format: functional, cell-based.
Test [9] in a line: cytotoxicity toward NIH3T3 fibroblasts, dose response, counter-screen, cell-based, ATP luminescence, mouse fibroblasts (AID 2010).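 Note: cells exposed to compound for about 90 hours before reading.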 Format: functional. (In general: Counterscreens check selectivity or assay interference.)
Test [10] can be described thus: cells.
Test [11] addresses T4, Heat shock factor protein 1 (Mus musculus, UniProt P38532).
T4 sequence (P38532 whole entry): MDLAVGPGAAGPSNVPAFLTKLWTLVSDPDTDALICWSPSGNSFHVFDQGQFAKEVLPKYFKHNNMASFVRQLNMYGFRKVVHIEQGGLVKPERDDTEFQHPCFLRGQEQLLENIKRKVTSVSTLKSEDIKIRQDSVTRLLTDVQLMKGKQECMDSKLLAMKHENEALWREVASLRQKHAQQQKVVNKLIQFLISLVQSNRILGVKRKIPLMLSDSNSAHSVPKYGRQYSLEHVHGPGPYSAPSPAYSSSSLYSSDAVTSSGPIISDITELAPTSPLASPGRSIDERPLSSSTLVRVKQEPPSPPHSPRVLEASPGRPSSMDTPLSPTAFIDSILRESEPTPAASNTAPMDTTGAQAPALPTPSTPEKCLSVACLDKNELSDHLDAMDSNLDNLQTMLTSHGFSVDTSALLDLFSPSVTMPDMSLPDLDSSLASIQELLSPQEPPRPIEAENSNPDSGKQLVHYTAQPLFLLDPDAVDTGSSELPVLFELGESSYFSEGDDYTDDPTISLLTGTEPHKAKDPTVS
The test is described as follows: HSF1 potentiators in luciferase reporter cells, confirmation, cell-based, NIH3T3, luminescence, dose retest (AID 435004).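 Note: stress induced by proteasome inhibitor MG132 added 30 min after compound; luciferase reporter driven by HSF1 response element in NIH3T3 cells; actives raise luminescence as potentiators of the MG132 stress response.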 Format: functional.

Test [12] concerns the target Eukaryotic translation initiation factor 4E (Mus musculus, UniProt P63073). The test is described as follows: eIF4E–eIF4G protein interaction inhibitors, dose response, biochemical, TR-FRET (AID 855).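 Note: potency for disrupting eIF4E binding to eIF4GI seen as loss of FRET.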 Format: functional. In general terms: TR-FRET usually uses a lanthanide donor and a delayed reading to cut background.
A further test addresses Large T antigen (Simian virus 40, UniProt P03070). Format: functional, Betapolyomavirus macacae.
The target of a further test is Nonstructural protein 1 (Influenza A virus, UniProt Q194T2). Format: functional, Influenza A virus (A/California/07/2009(H1N1)).
The nature of test [13]: THP-1 cell cytotoxicity, dose response, cytotoxicity control for non-replicating M. tuberculosis project (AID 489025). Format: functional.
Another test relates to Streptococcus. The test is described as follows: Group A Streptococcus viability loss, dose response, counter-screen for streptokinase expression inhibitor project, luminescence, BacTiterGlo (AID 1915).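 Note: potency for reduction of bacterial viability or growth.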 Format: functional, organism-based.
Test [14] in a line: cells. Format: functional.
Test [15] concerns Streptococcus sp. 'group A'. As to the kind of experiment: growth inhibition of control SK(-) GAS strain, dose response, counter-screen for streptokinase expression inhibitor project, luminescence, kanamycin, BacTiterGlo, confirmation (AID 1900). Format: functional, organism-based.
Test [16] has as its target Heat shock protein HSP 90-alpha (Homo sapiens, UniProt P07900). Format: functional, organism-based.

SMILES strings stand for the structures. Active and inactive are the calls of the source.

Chain of Luciferin 4-monooxygenase (P08659 whole entry): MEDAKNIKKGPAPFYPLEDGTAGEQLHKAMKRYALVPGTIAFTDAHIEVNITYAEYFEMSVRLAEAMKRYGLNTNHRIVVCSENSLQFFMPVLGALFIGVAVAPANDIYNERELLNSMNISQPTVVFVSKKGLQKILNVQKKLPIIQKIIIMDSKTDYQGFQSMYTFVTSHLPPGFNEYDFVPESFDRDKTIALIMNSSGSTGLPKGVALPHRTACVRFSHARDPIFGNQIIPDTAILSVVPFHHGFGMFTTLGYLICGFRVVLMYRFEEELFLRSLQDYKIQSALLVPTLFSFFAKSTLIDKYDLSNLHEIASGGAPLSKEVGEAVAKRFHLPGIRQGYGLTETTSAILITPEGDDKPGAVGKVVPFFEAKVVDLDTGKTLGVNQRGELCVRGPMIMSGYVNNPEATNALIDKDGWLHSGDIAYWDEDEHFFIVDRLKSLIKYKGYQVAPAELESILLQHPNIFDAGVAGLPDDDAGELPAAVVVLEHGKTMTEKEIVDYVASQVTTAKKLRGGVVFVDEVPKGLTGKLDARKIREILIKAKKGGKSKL
Chain of FAD-linked sulfhydryl oxidase ALR (P55789 whole entry): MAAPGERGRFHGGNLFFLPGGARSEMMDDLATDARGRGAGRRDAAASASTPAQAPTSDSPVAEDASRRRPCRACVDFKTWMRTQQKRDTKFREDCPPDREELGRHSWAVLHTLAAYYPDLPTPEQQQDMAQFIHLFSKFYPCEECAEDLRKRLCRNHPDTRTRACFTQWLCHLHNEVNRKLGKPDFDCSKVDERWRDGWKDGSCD
Chain of Eukaryotic translation initiation factor 4E (P63073 whole entry): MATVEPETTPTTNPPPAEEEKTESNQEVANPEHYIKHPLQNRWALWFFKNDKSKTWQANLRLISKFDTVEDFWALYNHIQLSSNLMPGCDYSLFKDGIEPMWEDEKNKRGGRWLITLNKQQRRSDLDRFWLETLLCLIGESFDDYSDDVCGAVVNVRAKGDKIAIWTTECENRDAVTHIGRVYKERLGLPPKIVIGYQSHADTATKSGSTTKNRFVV
Chain of Nonstructural protein 1 (Q194T2 whole entry): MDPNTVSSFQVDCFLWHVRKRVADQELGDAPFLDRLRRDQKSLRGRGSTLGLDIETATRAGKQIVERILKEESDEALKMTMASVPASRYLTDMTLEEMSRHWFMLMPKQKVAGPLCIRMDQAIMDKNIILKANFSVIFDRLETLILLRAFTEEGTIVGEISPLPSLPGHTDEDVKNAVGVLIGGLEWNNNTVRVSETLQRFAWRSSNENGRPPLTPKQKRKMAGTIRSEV
Chain of Large T antigen (P03070 whole entry): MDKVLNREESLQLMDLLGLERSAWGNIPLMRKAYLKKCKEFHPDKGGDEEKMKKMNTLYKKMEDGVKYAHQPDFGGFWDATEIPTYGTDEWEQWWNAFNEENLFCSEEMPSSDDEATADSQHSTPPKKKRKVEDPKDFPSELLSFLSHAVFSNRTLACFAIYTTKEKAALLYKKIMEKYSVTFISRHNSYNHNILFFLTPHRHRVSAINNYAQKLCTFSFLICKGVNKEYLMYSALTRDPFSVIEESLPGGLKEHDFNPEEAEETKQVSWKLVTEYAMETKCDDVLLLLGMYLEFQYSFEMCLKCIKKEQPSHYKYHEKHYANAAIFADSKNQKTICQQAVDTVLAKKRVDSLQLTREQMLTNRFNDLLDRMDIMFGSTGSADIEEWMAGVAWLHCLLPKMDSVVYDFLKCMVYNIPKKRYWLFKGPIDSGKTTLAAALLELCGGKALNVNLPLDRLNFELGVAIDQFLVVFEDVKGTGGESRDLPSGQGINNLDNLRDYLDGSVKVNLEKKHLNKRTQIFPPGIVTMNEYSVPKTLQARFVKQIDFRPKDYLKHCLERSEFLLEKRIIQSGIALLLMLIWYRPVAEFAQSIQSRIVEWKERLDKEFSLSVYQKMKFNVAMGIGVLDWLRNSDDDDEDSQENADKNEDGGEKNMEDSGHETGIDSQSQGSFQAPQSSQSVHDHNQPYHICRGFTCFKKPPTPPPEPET

The term AC50 denotes the concentration giving half of the maximal activity seen. Take `CCN(CC)CCNS(=O)(=O)c1ccc(C(=O)NN)cc1`: in test [1], the AC50 is 3390 nM (active).

As a reminder, the EC50 is the concentration giving half of the maximal effect. As for `O=C(CCl)Nc1sccc1C(=O)c1ccccc1`, the EC50 at Protein RecA is 4.78 µM (active). Further, the AC50 in test [2] is 4.8 µM (active). The CC50 in test [3] was 18.1 µM (active).

Consider `O=C1CC(N2CCc3ccccc32)C(=O)N1c1ccccc1` (centres undefined), for which, in [1], the half-maximal activity concentration (AC50) is 677 nM (active).

In the case of `Cc1[nH]c(=O)c(C#N)cc1-c1ccncc1` [MILRINONE], the EC50 in [4] is 0.634 µM (active); in [5], > 112 µM (not active).

Turning to `COc1cc2cc(C(N)=O)c(N)nc2cc1OC`, the EC50 in [4] was 40 µM (active); in [5] it was > 112 µM (not active).

As to `COc1ccc(N2CC(C(=O)NCc3ccccc3)CC2=O)cc1` (centres undefined), the EC50 in [4] and in [5] was > 112 µM (not active) in each case.

For `CCc1ccc(C2=NN(c3ccc(S(N)(=O)=O)cc3)C(c3ccc(F)cc3)C2)cc1` (centres undefined), the EC50 is 16.6 µM (active) in test [6] and 17.9 µM (active) in [7]. Also, the CC50 in [3] is 27.6 µM (active).

The IC50 is the concentration that inhibits the measured activity by half. In the case of `O=C(CSc1nc[nH]n1)Nc1ccc(S(=O)(=O)N2CCCC2)cc1`, the IC50 at Leucine aminopeptidase is 82.5 µM (active).

With `CCN(CC)CCN(C(=O)C1CCCCC1)c1nc2cc3c(cc2s1)OCO3`, the values for the EC50 (in test [8]; in test [9]; in “cells [10]”) were < 100 nM (active), > 60 µM (not active) and 514 nM (active), respectively.

In the case of `Cc1ccc(C(=O)c2c(NC(=O)c3ccncc3)sc3c2CCCC3)cc1`, the EC50 is < 100 nM (active) in test [8], > 60 µM (not active) in [9] and 266 nM (active) in “cells [10]”.

As for `CCOC(=O)c1nc(O)c2c3c(sc2n1)CCCC3`, the 50% effective concentration (EC50) in test [4] was > 112 µM (not active).

For the compound `CC1=C(C(=O)OCc2ccccc2)C(c2ccc(Cl)cc2Cl)NC(=O)N1CCCCCC(=O)O` (centres undefined), at Leucine aminopeptidase, the IC50 was 20.4 µM (active).

`Fc1ccc(C2CC(c3ccccc3)n3ncnc3N2)cc1` (centres undefined): the EC50 in test [4] and in test [5] was > 112 µM (not active) each time.

Turning to `Cn1nc(C(=O)OCC(=O)Nc2sccc2C(N)=O)c2ccccc2c1=O`, the EC50 in test [4] and in test [5] was > 112 µM (not active) each time.

Turning to `CCCCN(CCCNC(=O)C1CCN(S(=O)(=O)CC)CC1)c1ccccc1`, the AC50 in test [1] was 131 nM (active). The EC50 in [11] is > 260 µM (inactive).

For `Cc1ccsc1/C=N/n1c(S)nnc1-c1cccnc1`, the IC50 in [12] is > 64 µM (inactive); at Large T antigen, 30.3 µM (active).

Regarding `CCOC(=O)c1nc2sc3c(c2c(=O)[nH]1)CCCC3`, the 50% effective concentration (EC50) in test [5] is > 112 µM (not active).

With `COc1ccc(Nc2ccc(S(=O)(=O)N3CCCCCC3)cc2[N+](=O)[O-])cc1`, at Nonstructural protein 1, the concentration for half-maximal inhibition (IC50) is 45.6 µM (active).

As for `CCCN1CCC(=NNC(=O)c2ccc(Br)o2)CC1`, the IC50 in test [12] is > 64 µM (inactive).

Regarding `CC(C)CC(=O)n1sc(NC(=O)c2ccccc2)nc1=O`, the IC50 at Leucine aminopeptidase was 43.9 µM (active).

As to `Cc1cc2nc(N/C(N)=N/C(=O)C(C)C)nc(C)c2cc1C`, the CC50 in test [13] was 17 µM (active); in [3] it was > 40 µM (active). In addition, the EC50 (in the test on Streptococcus; in test [15]) was > 150 µM (not active) each time. For the same compound, the IC50 in “cells [14]” was 20.3 µM (active).

For the compound `CC(C)COc1ccc(C(=O)Nc2ccc(NC(=O)c3ccco3)c(Cl)c2)cc1`, the 50% effective concentration (EC50) in test [4] and in test [5] was > 112 µM (not active) each time.

Turning to `COc1cc(C=NO)nc(-c2ccccn2)c1`, the AC50 in test [16] was 3.2 µM (active). For the same compound, on Nonstructural protein 1, the IC50 is 2.51 µM (active).
